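Cells were grown in 96-well plates and exposed to each compound for 48 hours at five concentrations; endpoints were interpolated linearly between bracketing concentrations, or set to the highest concentration if not reached. TGI: concentration producing complete growth inhibition.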
Columns and labels:
Experiment in all cases: NCI-60 cell line screen, 48 h
HT29 colon = test system: HT29 colon
OVCAR-8 ovarian = test system: OVCAR-8 ovarian
EKVX NSCLC = test system: EKVX NSCLC
HL-60(TB) leukemia = test system: HL-60(TB) leukemia
NCI-H522 lung = test system: NCI-H522 lung
IGROV1 ovarian = test system: IGROV1 ovarian
SF-268 CNS = test system: SF-268 CNS
BT-549 breast = test system: BT-549 breast
UACC-257 melanoma = test system: UACC-257 melanoma
OVCAR-4 ovarian = test system: OVCAR-4 ovarian

Compound	TGI (HT29 colon)	TGI (OVCAR-8 ovarian)	TGI (EKVX NSCLC)	TGI (HL-60(TB) leukemia)	TGI (NCI-H522 lung)	TGI (IGROV1 ovarian)	TGI (SF-268 CNS)	TGI (BT-549 breast)	TGI (UACC-257 melanoma)	TGI (OVCAR-4 ovarian)
CN1CCN(Cc2cc3c(nn2)-c2ccccc2C3=O)CC1	> 100 µM	> 100 µM	> 100 µM	72.5 µM	64.3 µM	> 100 µM	> 100 µM	> 100 µM	37.1 µM	–
N#CC(c1ccccc1)N(CCOCCOCCN(C(=O)c1ccccc1)C(C#N)c1ccccc1)C(=O)c1ccccc1 (configuration not stated)	> 100 µM	> 100 µM	> 100 µM	> 100 µM	–	> 100 µM	> 100 µM	> 100 µM	> 100 µM	> 100 µM
Cn1ncc2c(NCc3ccccc3)ncnc21	> 100 µM	> 100 µM	> 100 µM	> 100 µM	–	> 100 µM	> 100 µM	> 100 µM	> 100 µM	> 100 µM
O[C@H]1[C@H](O)[C@@H](O)CN2CC[C@H](O)[C@H]12	> 100 µM	> 100 µM	> 100 µM	> 39.8 µM	> 100 µM	> 100 µM	> 100 µM	–	> 100 µM	> 100 µM
[N-]=[N+]=CC(=O)OC(CCl)CCl	> 100 µM	–	> 100 µM	> 100 µM	> 100 µM	> 100 µM	> 100 µM	> 100 µM	> 100 µM	> 100 µM
O=C(NN1C(=O)CS(=O)(=O)C1c1ccc(C(F)(F)F)cc1)c1ccncc1 (configuration not stated)	> 100 µM	–	–	> 100 µM	> 100 µM	–	> 100 µM	–	> 100 µM	> 100 µM
CSc1nc2c(c(N(C)C)n1)C(O)n1c(nc3ccccc31)S2 (configuration not stated)	> 100 µM	> 56.8 µM	> 100 µM	–	39.2 µM	> 100 µM	> 100 µM	> 100 µM	> 100 µM	24.5 µM
Cc1ccnc(NC(=S)Nc2ccc([N+](=O)[O-])cc2)c1	> 100 µM	> 100 µM	> 100 µM	> 100 µM	–	> 100 µM	> 100 µM	> 100 µM	> 100 µM	> 100 µM
CC(C(=O)COCc1ccccc1)P1(=O)OC(C)(C)CN1C(C)(C)C (configuration not stated)	> 100 µM	> 100 µM	> 100 µM	> 100 µM	> 100 µM	–	> 100 µM	–	> 100 µM	> 100 µM
Cc1nc2ccccc2c(-n2cccn2)c1CCn1cccn1	> 100 µM	> 100 µM	> 100 µM	> 100 µM	> 100 µM	> 100 µM	> 100 µM	–	> 100 µM	> 100 µM
O=c1onc2n1-c1cc(Cl)ccc1C(=S)N1CSCC21 (configuration not stated)	> 100 µM	> 100 µM	> 100 µM	–	> 100 µM	> 100 µM	> 100 µM	> 100 µM	> 100 µM	> 100 µM
CC(C)C1=CC23CCC4C(C)(C(=O)O)CCCC4(C)C2CC1C1C(=O)N(CCCCCCN2C(=O)C4C5CC6C7(C)CCCC(C)(C(=O)O)C7CCC6(C=C5C(C)C)C4C2=O)C(=O)C13 (configuration not stated)	13.8 µM	24.9 µM	21.6 µM	82.6 µM	26.6 µM	–	26.8 µM	–	–	34.3 µM

— PubChem BioAssay (NCI)
